Measurements from ChEMBL document CHEMBL1201862, “PubChem BioAssay data set” (2004).
Blank lines part the entries; values can stand above or below the molecule they belong to. Activity calls are given as the source filed them.

How the values were obtained:
Leucine aminopeptidase = molecular target: T1, Leucine aminopeptidase (Plasmodium falciparum 3D7, UniProt Q8IL11); experiment: P. falciparum M17LAP inhibitors, primary screen, biochemical, fluorogenic H-Leu-NHMec substrate, 1536-well (AID 1619); format: functional
T1 sequence (Q8IL11 whole entry): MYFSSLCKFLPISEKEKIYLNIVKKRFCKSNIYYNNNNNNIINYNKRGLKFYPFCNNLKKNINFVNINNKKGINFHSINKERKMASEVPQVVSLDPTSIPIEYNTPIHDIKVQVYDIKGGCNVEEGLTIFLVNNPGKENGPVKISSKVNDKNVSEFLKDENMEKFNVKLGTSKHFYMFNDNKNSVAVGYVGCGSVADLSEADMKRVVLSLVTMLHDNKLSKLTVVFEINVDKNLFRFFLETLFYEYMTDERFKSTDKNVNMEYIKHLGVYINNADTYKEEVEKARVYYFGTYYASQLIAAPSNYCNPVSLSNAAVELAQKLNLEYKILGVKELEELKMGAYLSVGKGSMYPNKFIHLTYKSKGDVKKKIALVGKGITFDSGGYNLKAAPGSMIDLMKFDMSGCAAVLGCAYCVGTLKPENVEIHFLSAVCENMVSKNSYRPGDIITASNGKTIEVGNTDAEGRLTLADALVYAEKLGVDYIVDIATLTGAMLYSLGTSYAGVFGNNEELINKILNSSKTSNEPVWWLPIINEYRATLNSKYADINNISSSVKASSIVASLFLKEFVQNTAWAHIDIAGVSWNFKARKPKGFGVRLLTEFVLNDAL

[1] = molecular target: T2, Histone-lysine N-methyltransferase NSD2 (Homo sapiens, UniProt O96028); format: biochemical
T2 sequence (O96028 whole entry): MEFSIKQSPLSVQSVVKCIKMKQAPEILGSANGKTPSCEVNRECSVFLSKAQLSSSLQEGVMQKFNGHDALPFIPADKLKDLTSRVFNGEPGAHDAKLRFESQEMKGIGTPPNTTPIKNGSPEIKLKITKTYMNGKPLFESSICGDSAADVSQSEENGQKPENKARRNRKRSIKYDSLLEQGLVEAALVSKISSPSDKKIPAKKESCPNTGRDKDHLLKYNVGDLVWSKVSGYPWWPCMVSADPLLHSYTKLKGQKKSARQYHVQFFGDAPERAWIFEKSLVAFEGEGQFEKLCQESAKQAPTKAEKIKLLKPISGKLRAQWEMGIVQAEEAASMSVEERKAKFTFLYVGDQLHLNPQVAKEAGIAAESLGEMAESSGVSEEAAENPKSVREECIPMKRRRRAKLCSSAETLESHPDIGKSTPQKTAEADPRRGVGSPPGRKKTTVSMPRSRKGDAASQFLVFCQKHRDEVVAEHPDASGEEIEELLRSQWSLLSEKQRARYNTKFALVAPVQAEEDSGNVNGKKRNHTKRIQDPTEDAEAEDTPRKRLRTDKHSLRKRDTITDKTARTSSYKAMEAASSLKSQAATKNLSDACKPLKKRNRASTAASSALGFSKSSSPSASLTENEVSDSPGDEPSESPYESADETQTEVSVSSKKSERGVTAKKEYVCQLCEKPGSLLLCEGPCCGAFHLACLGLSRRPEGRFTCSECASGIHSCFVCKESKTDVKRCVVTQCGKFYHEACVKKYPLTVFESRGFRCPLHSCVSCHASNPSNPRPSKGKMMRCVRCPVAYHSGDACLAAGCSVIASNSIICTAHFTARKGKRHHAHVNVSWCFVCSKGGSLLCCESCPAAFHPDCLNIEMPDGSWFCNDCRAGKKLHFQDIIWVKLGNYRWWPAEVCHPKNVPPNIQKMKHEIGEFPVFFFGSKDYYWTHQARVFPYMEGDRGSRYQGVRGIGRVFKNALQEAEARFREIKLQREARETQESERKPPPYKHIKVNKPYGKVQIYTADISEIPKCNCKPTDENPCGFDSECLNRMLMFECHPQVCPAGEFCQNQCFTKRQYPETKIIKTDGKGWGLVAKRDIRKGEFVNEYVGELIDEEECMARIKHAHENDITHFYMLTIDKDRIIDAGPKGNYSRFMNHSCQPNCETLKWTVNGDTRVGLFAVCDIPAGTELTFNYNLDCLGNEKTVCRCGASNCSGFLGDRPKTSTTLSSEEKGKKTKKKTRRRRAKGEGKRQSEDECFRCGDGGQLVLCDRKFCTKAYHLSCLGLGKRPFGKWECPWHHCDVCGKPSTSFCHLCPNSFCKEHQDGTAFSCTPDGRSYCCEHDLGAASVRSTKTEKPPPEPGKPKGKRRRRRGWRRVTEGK

Prothrombin = Prothrombin (Homo sapiens, UniProt P00734); experiment: Thrombin 1536 HTS Dose Response Confirmation. [Related pubchem assays: 1046 (Thrombin 1536 HTS; hits were confirmed in this assay)]; format: functional
[2] = blockade of melanocortin 4 receptor signaling – cell-based, plate reader, cherry pick, counter-screen for LGR2 antagonist project, dose response (AID 743444); format: functional;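 note: transfected HEK 293 cells stimulated with alpha-MSH peptide; potency of inhibitors of the alpha-MSH evoked signal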
[3] = blockers of bursicon-stimulated LGR2 cAMP reporter – cell-based, HEK293, CRE-luciferase reporter, cherry pick, set 2, dose response (AID 743343); format: functional;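 note: transfected cells were stimulated with diluted bursicon conditioned medium after compound addition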
[4] = molecular target: T3, Heat shock factor protein 1 (Mus musculus, UniProt P38532); experiment: decrease of HSF1-responsive luciferase luminescence – cell-based, NIH3T3, dose retest, confirmation (AID 2382); format: functional;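 note: NIH3T3 fibroblasts with HSF1-driven luciferase reporter stressed by proteasome inhibitor MG132; luminescence from HSF1-driven luciferase expression after 8 hours of MG132 stress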
T3 sequence (P38532 whole entry): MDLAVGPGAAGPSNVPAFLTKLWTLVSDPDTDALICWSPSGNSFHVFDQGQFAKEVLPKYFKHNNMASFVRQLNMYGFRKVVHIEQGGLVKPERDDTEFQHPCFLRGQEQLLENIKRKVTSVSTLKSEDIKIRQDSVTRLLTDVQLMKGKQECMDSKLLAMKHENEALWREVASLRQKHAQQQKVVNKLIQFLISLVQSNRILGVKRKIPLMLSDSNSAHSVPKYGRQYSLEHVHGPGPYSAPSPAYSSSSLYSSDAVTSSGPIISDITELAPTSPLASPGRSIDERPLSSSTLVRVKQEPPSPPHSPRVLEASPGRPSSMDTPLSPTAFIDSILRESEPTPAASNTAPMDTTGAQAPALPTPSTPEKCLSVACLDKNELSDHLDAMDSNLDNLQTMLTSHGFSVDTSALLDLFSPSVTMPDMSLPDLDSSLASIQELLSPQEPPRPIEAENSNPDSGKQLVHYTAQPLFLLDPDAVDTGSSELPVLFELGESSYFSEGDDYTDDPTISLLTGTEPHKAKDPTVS

[5] = molecular target: T4, Rac GTPase-activating protein 1 (Homo sapiens, UniProt Q9H0H5); experiment: blockers of MgcRacGAP-driven Rac1 GTP hydrolysis – biochemical, ADP Hunter fluorescence, primary and confirmatory, confirmation (AID 624330); format: functional
T4 sequence (Q9H0H5 whole entry): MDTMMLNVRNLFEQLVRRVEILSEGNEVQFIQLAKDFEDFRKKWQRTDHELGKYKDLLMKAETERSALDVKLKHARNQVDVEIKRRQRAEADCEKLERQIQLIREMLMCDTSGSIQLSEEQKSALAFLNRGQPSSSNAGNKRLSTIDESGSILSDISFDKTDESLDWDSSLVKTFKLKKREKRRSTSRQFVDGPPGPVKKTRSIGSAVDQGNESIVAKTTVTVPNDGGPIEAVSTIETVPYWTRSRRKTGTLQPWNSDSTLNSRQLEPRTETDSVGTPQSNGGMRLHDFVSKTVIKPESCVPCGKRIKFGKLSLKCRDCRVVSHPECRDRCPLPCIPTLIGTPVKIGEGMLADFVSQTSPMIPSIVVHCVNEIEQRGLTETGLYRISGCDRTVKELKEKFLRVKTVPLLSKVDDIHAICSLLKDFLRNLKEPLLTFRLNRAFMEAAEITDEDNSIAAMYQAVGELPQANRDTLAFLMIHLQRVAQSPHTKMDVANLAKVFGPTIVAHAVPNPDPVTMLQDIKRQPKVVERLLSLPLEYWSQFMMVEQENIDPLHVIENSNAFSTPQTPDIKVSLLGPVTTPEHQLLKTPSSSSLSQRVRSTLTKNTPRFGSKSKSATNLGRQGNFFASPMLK

[6] = OVCAR-3 cell viability loss – plate reader, dry powder samples, PAX8 inhibitor project, dose response (AID 743044); format: functional, cell-based
Paired box protein Pax-8 = Paired box protein Pax-8 (Homo sapiens, UniProt Q06710); experiment: PAX8 transcriptional activity inhibition in RMG-I – RMG-I cells, luciferase, cherry-pick, dose response (AID 687027); format: functional, cell-based;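 note: luciferase reporter driven by Pax8 target thyroperoxidase promoter measured by SteadyGlo luminescence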
Paired box protein Pax-8, sequence (Q06710 whole entry): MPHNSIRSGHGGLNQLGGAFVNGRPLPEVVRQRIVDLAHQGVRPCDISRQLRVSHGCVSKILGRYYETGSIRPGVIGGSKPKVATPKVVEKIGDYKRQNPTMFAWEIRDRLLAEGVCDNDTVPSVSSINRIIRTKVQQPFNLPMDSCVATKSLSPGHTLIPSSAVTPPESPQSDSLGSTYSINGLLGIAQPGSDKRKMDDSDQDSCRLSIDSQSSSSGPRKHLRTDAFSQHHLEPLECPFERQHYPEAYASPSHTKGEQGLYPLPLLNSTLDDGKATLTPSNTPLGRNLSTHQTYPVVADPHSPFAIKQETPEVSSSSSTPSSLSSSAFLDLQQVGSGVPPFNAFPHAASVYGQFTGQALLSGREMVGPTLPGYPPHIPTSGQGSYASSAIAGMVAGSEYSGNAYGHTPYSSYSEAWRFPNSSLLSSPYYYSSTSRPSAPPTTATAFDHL

Protein skinhead-1 = molecular target: T5, Protein skinhead-1 (Caenorhabditis elegans, UniProt P34707); format: functional
T5 sequence (P34707 whole entry): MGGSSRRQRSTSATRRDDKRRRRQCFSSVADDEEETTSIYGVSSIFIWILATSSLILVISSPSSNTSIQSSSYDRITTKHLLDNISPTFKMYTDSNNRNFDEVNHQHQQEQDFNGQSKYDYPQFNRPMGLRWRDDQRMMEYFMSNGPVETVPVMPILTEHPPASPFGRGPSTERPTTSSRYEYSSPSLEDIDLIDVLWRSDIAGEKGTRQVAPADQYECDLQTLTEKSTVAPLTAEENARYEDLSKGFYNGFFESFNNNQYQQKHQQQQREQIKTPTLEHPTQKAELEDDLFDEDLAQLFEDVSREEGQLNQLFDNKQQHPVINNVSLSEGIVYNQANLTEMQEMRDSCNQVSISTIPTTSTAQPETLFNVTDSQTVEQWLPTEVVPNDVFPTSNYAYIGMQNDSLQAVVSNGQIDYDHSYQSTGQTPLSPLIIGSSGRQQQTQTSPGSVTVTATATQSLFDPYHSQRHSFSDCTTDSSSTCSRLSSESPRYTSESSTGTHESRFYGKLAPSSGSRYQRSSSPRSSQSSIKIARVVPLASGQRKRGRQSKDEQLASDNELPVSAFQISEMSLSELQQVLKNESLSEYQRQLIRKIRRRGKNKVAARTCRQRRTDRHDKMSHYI

Structure (SMILES): CCCCCOc1ccc(NC(=O)CCCC(=O)O)cc1
- IC50 (Leucine aminopeptidase): 11.3 µM (active)

Structure (SMILES): COc1ccccc1N1CCN(C(=O)CNC(=O)c2cn(-c3ccccc3OC)c(=O)c3ccccc23)CC1
- IC50 (Prothrombin): 9.56 µM (active)

Structure (SMILES): Cc1cc(C(=O)COC(=O)C2CC2)c(C)n1-c1ccc(F)cc1
- AC50 [2]: 0.334 µM (active)
- AC50 [3]: 0.585 µM (active)
- EC50 [4]: 1.96 µM (active)

Structure (SMILES): CCS(=O)(=O)C1=NN2C(=N)/C(=C\c3ccc(O)c(OC)c3)C(=O)N=C2S1
- IC50 (Leucine aminopeptidase): 35.2 µM (active)
- IC50 [5]: 37.2 µM (active)

Structure (SMILES): Cc1ccc(S(=O)(=O)N(C)C[C@@H]2Oc3cc(C#Cc4ccncc4)ccc3S(=O)(=O)N([C@H](C)CO)C[C@@H]2C)cc1
- AC50 [6]: 22.4 µM (active)
- AC50 (Paired box protein Pax-8): 6.03 µM (active)

Structure (SMILES): C/C(=N\NC(=S)NC1CCCCC1)c1cccc(Br)c1
- IC50 (Prothrombin): > 50 µM (inconclusive)

Further lines, results first:

- AC50 [1]: > 20 µM (inactive)
Structure (SMILES): COc1cccc(=O)c2c(C)n(-c3ccc(C(=O)O)cc3)c(C)c12

- IC50 (Prothrombin): > 50 µM (not active)
Structure (SMILES): CCCOP(=O)(c1ccc(N(C)C)cc1)C(O)c1ccncc1 (configuration not stated)

- IC50 (Leucine aminopeptidase): 18.6 µM (active)
Structure (SMILES): Cc1ccc(C)c(NC(=O)C2CC=CCC2C(=O)O)c1 (configuration not stated)

- IC50 (Prothrombin): > 50 µM (not active)
Structure (SMILES): Cc1ccc(C(=O)CSc2nc(C)cc(C)c2C(N)=O)cc1

- AC50 [1]: 8.09 µM (active)
Structure (SMILES): O=C1C(=O)N(CCS(=O)(=O)c2ccccc2)c2ccc(F)cc21

- IC50 (Prothrombin): 0.16 µM (active)
- IC50 (Protein skinhead-1): > 100 µM (inactive)
Structure (SMILES): CSc1nc(-c2ccco2)nn1C(=O)c1ccc(C)cc1
